This note sets out measurements from patent US20250100968A1, “BICYCLIC-HETEROCYCLE DERIVATIVES AND RELATED USES” (CENTESSA PHARMACEUTICALS (UK) LIMITED, priority 2022, published 2025).

SMILES strings stand for the structures.

For orientation: EC50 means the concentration giving half of the maximal effect. Read a high EC50 as weaker potency.
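Further: agonist activity in CHO cells stably expressing hOX2R, intracellular Ca2+ via Calcium 5 dye fluorescence area over 2 min, buffer-only as 0% and 10 nM orexin A as 100%.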

The assay concerns the target T1, human orexin type 2 receptor (hOX2R) (Homo sapiens, UniProt O43614).
T1 sequence (O43614 1-444): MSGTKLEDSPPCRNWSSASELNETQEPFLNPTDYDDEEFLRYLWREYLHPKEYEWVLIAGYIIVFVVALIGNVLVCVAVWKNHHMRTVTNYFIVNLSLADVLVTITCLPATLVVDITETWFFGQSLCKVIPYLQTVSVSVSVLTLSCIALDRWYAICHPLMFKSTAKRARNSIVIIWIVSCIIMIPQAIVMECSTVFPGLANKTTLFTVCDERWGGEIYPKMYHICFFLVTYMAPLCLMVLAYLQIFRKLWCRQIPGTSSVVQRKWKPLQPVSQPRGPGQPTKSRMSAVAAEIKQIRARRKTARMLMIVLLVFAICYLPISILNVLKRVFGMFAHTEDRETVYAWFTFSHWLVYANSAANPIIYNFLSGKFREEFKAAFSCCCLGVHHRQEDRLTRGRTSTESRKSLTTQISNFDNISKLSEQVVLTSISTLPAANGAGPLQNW
Nature of the assay: cell-based.
Procedure: Measurement of orexin type 2 receptor agonist activity. […] After removal of the medium, 50 μl of assay buffer 1 (0.1% bovine serum albumin (Sigma Aldrich), 20 mM HEPES (Molecular Dimensions), 250 mM probenecid (Sigma Aldrich), 1× Calcium 5 dye (Molecular Devices) in Hank's balanced salt solution (Invitrogen)) was added, and the cells were incubated for 60 min under the conditions of 37° C., 5% CO2. A test compound was dissolved in dimethyl sulfoxide (Sigma Aldrich) to 10 mM, and then diluted with assay buffer 2 (20 mM HEPES, Hank's balanced salt solution, 0.1% bovine serum albumin). For the reaction, a test compound solution (10 μl) was added using Fluorescent Imaging Plate Reader TETRA (FLIPR TETRA: manufactured by Molecular Devices), a fluorescence value (excitation wavelength 488 nm, measurement wavelength 570 nm) of each well was measured every one second for 2 min, and the agonist activity was determined using the area of the fluorescence value as an indicator of intracellular Ca^2+ concentration. The agonist activity of the test compound was calculated assuming that the fluorescence value of the well added with only the dilution buffer was 0% and the fluorescence value of the well added with 10 nM human orexin A (Tocris) buffer was 100%.
In turn, `O=C(NCC(F)F)N1CC2(CC2)[C@H](NS(=O)(=O)C(F)F)[C@@H]1Cc1cccc(-c2cc(F)cc(F)c2)c1F` [compound 28, (6S,7S)-N-(2,2-difluoroethyl)-7-((difluoromethyl)sulfonamido)-6-((2,3′,5′-trifluoro-[1,1′-biphenyl]-3-yl)methyl)-5-azaspiro[2.4]heptane-5-carboxamide] registered an EC50 of 0.0631 to 1 nM. Then `O=C(C(O)CF)N1CC2(CC2)[C@H](NS(=O)(=O)C(F)F)[C@@H]1Cc1cccc(-c2cccc(F)c2)c1F` (mixture of isomers) [compound 29, N-((6S,7S)-6-((2,3′-difluoro-[1,1′-biphenyl]-3-yl)methyl)-5-((RS)-3-fluoro-2-hydroxypropanoyl)-5-azaspiro[2.4]heptan-7-yl)-1,1-difluoromethanesulfonamide], with 0.0631 to 1 nM. Then `N#C[C@]1(C(=O)N2CC3(CC3)[C@H](NS(=O)(=O)CF)[C@@H]2Cc2cc(F)cc(-c3ccccc3)c2F)C[C@H](F)C1` [compound 89, N-((6S,7S)-5-((1r,3S)-1-cyano-3-fluorocyclobutane-1-carbonyl)-6-((2,5-difluoro-[1,1′-biphenyl]-3-yl)methyl)-5-azaspiro[2.4]heptan-7-yl)-1-fluoromethanesulfonamide], with 1 to 10 nM.

As for `N#C[C@]1(C(=O)N2CC3(CC3)[C@H](NS(=O)(=O)CF)[C@@H]2Cc2cccc(-c3cc(F)ccc3F)c2F)CCO1` [compound 80, N-((6S,7S)-5-((S)-2-cyanooxetane-2-carbonyl)-6-((2,2′,5′-trifluoro-[1,1′-biphenyl]-3-yl)methyl)-5-azaspiro[2.4]heptan-7-yl)-1-fluoromethanesulfonamide], the EC50 lay within 0.0631 to 1 nM. For the compound `C[C@@H](NC(=O)N1CC2(CC2)[C@H](NS(=O)(=O)CF)[C@@H]1Cc1cccc(-c2cc(F)cc(F)c2)c1F)C(F)F` [compound 4, (6S,7S)-N-((R)-1,1-difluoropropan-2-yl)-7-((fluoromethyl)sulfonamido)-6-((2,3′,5′-trifluoro-[1,1′-biphenyl]-3-yl)methyl)-5-azaspiro[2.4]heptane-5-carboxamide], the EC50 fell in the range of 1 to 10 nM.

`CC(F)(F)CNC(=O)N1CC2(CC2)[C@H](NS(=O)(=O)C(F)F)[C@@H]1Cc1cccc(-c2cc(F)cc(F)c2)c1F` [compound 39, (6S,7S)-7-((difluoromethyl)sulfonamido)-N-(2,2-difluoropropyl)-6-((2,3′,5′-trifluoro-[1,1′-biphenyl]-3-yl)methyl)-5-azaspiro[2.4]heptane-5-carboxamide]: the EC50 fell in the range of 1 to 10 nM. Then `C[C@@H](C#N)C(=O)N1CC2(CC2)[C@H](NS(=O)(=O)C(F)F)[C@@H]1Cc1cccc(-c2cc(F)cc(F)c2)c1F` [compound 70, N-((6S,7S)-5-((S)-2-cyanopropanoyl)-6-((2,3′,5′-trifluoro-[1,1′-biphenyl]-3-yl)methyl)-5-azaspiro[2.4]heptan-7-yl)-1,1-difluoromethanesulfonamide], with 1 to 10 nM; and `O=C([C@H]1CCO1)N1CC2(CC2)[C@H](NS(=O)(=O)C2(F)CC2)[C@@H]1Cc1cccc(-c2ccccc2)c1F` [compound 10, 1-fluoro-N-((6S,7S)-6-((2-fluoro-[1,1′-biphenyl]-3-yl)methyl)-5-((R)-oxetane-2-carbonyl)-5-azaspiro[2.4]heptan-7-yl)cyclopropane-1-sulfonamide], with 0.0631 to 1 nM. Then `CC(C)S(=O)(=O)N[C@@H]1[C@H](Cc2cc(F)cc(-c3cc(F)cc(F)c3)c2F)N(C(=O)[C@H]2CCO2)CC12CC2` [compound 20, N-((6S,7S)-5-((R)-oxetane-2-carbonyl)-6-((2,3′,5,5′-tetrafluoro-[1,1′-biphenyl]-3-yl)methyl)-5-azaspiro[2.4]heptan-7-yl)propane-2-sulfonamide], with 0.0631 to 1 nM; and `C[C@](O)(C(=O)N1CC2(CC2)[C@H](NS(=O)(=O)CF)[C@@H]1Cc1cccc(-c2cccc(F)c2)c1F)C(F)F` [compound 6, N-((6S,7S)-5-((S)-3,3-difluoro-2-hydroxy-2-methylpropanoyl)-6-((2,3′-difluoro-[1,1′-biphenyl]-3-yl)methyl)-5-azaspiro[2.4]heptan-7-yl)-1-fluoromethanesulfonamide], with 0.0631 to 1 nM; and `COCC1(C(=O)N2CC3(CC3)[C@H](NS(C)(=O)=O)[C@@H]2Cc2cccc(-c3ccccc3)c2F)CC1` [compound 26, N-((6S,7S)-6-((2-fluoro-[1,1′-biphenyl]-3-yl)methyl)-5-(1-(methoxymethyl)cyclopropane-1-carbonyl)-5-azaspiro[2.4]heptan-7-yl)methanesulfonamide], with 0.0631 to 1 nM. Under `CC(F)(F)CNC(=O)N1CC2(CC2)[C@H](NS(=O)(=O)CF)[C@@H]1Cc1cccc(-c2cc(F)cc(F)c2)c1F` [compound 38, (6S,7S)-N-(2,2-difluoropropyl)-7-((fluoromethyl)sulfonamido)-6-((2,3′,5′-trifluoro-[1,1′-biphenyl]-3-yl)methyl)-5-azaspiro[2.4]heptane-5-carboxamide] stands 1 to 10 nM; under `CO[C@@H](C)C(=O)N1CC2(CC2)[C@H](NS(=O)(=O)C(F)F)[C@@H]1Cc1cccc(-c2cc(F)cc(F)c2)c1F` [compound 65, 1,1-difluoro-N-((6S,7S)-5-((S)-2-methoxypropanoyl)-6-((2,3′,5′-trifluoro-[1,1′-biphenyl]-3-yl)methyl)-5-azaspiro[2.4]heptan-7-yl)methanesulfonamide], 1 to 10 nM. Regarding `C[C@@H](C#N)C(=O)N1CC2(CC2)[C@H](NS(=O)(=O)CF)[C@@H]1Cc1cccc(-c2cc(F)cc(F)c2)c1F` [compound 63, N-((6S,7S)-5-((S)-2-cyanopropanoyl)-6-((2,3′,5′-trifluoro-[1,1′-biphenyl]-3-yl)methyl)-5-azaspiro[2.4]heptan-7-yl)-1-fluoromethanesulfonamide], the EC50 is 1 to 10 nM. Under `N#CC1(C(=O)N2CC3(CC3)[C@H](NS(=O)(=O)CF)[C@@H]2Cc2cc(F)cc(-c3ccccc3)c2F)CC1` [compound 76, N-((6S,7S)-5-(1-cyanocyclopropane-1-carbonyl)-6-((2,5-difluoro-[1,1′-biphenyl]-3-yl)methyl)-5-azaspiro[2.4]heptan-7-yl)-1-fluoromethanesulfonamide] stands 0.0631 to 1 nM; under `O=C(NCC(F)F)N1CC2(CC2)[C@H](NS(=O)(=O)C(F)F)[C@@H]1Cc1cc(F)cc(-c2cc(F)cc(F)c2)c1F` [compound 25, (6S,7S)-N-(2,2-difluoroethyl)-7-((difluoromethyl)sulfonamido)-6-((2,3′,5,5′-tetrafluoro-[1,1′-biphenyl]-3-yl)methyl)-5-azaspiro[2.4]heptane-5-carboxamide], 0.0631 to 1 nM; under `C[C@@H](NC(=O)N1CC2(CC2)[C@H](NS(=O)(=O)C(F)F)[C@@H]1Cc1cccc(-c2cc(F)cc(F)c2)c1F)C(F)F` [compound 60, (6S,7S)-7-((difluoromethyl)sulfonamido)-N-((R)-1,1-difluoropropan-2-yl)-6-((2,3′,5′-trifluoro-[1,1′-biphenyl]-3-yl)methyl)-5-azaspiro[2.4]heptane-5-carboxamide], 1 to 10 nM. Then `C[C@](O)(C(=O)N1CC2(CC2)[C@H](NS(=O)(=O)CF)[C@@H]1Cc1cc(F)cc(-c2ccccc2)c1F)C(F)F` [compound 84, N-((6S,7S)-5-((S)-3,3-difluoro-2-hydroxy-2-methylpropanoyl)-6-((2,5-difluoro-[1,1′-biphenyl]-3-yl)methyl)-5-azaspiro[2.4]heptan-7-yl)-1-fluoromethanesulfonamide], with 1 to 10 nM; and `CC(F)(F)CNC(=O)N1CC2(CC2)[C@H](NS(=O)(=O)CF)[C@@H]1Cc1cc(F)cc(-c2ccccc2)c1F` [compound 74, (6S,7S)-6-((2,5-difluoro-[1,1′-biphenyl]-3-yl)methyl)-N-(2,2-difluoropropyl)-7-((fluoromethyl)sulfonamido)-5-azaspiro[2.4]heptane-5-carboxamide], with 1 to 10 nM. Under `N#C[C@@]1(C(=O)N2CC3(CC3)[C@H](NS(=O)(=O)CF)[C@@H]2Cc2cccc(-c3cc(F)ccc3F)c2F)CCO1` [compound 79, N-((6S,7S)-5-((R)-2-cyanooxetane-2-carbonyl)-6-((2,2′,5′-trifluoro-[1,1′-biphenyl]-3-yl)methyl)-5-azaspiro[2.4]heptan-7-yl)-1-fluoromethanesulfonamide] stands 0.0631 to 1 nM; under `C[C@H](CF)NC(=O)N1CC2(CC2)[C@H](NS(=O)(=O)CF)[C@@H]1Cc1cccc(-c2cc(F)cc(F)c2)c1F` [compound 61, (6S,7S)-7-((fluoromethyl)sulfonamido)-N-((R)-1-fluoropropan-2-yl)-6-((2,3′,5′-trifluoro-[1,1′-biphenyl]-3-yl)methyl)-5-azaspiro[2.4]heptane-5-carboxamide], 0.0631 to 1 nM.

In turn, `N#CC1(C(=O)N2CC3(CC3)[C@H](NS(=O)(=O)CF)[C@@H]2Cc2cc(F)cc(-c3ccccc3)c2F)CCC1` [compound 13, N-((6S,7S)-5-(1-cyanocyclobutane-1-carbonyl)-6-((2,5-difluoro-[1,1′-biphenyl]-3-yl)methyl)-5-azaspiro[2.4]heptan-7-yl)-1-fluoromethanesulfonamide] had an EC50 of 0.0631 to 1 nM. Take `C[C@](O)(CF)C(=O)N1CC2(CC2)[C@H](NS(=O)(=O)C2(F)CC2)[C@@H]1Cc1cccc(-c2ccccc2)c1F` [compound 91, 1-fluoro-N-((6S,7S)-5-((R)-3-fluoro-2-hydroxy-2-methylpropanoyl)-6-((2-fluoro-[1,1′-biphenyl]-3-yl)methyl)-5-azaspiro[2.4]heptan-7-yl)cyclopropane-1-sulfonamide]: the EC50 lay in the range of 0.0631 to 1 nM.
